PubChem BioAssay AID651980 (The Scripps Research Institute Molecular Screening Center, 2013)
The source made the active and inactive calls. The rule behind the calls is not given here.

How the values were obtained:
Assay in all cases: PubChem AID 651980
TPP2 = conditions: HEK293T in situ, ABPP-SILAC LC-MS/MS, NHU5 probe, at 5 µM, hits give low values
[1] = target: Protein phosphatase methylesterase 1 (Homo sapiens) (UniProt Q9Y570); conditions: HEK293T in situ, ABPP-SILAC LC-MS/MS, NHU5 probe; PPME1; at 5 µM; hits give low values
Protein phosphatase methylesterase 1 (Homo sapiens), sequence (Q9Y570 whole entry, looked up): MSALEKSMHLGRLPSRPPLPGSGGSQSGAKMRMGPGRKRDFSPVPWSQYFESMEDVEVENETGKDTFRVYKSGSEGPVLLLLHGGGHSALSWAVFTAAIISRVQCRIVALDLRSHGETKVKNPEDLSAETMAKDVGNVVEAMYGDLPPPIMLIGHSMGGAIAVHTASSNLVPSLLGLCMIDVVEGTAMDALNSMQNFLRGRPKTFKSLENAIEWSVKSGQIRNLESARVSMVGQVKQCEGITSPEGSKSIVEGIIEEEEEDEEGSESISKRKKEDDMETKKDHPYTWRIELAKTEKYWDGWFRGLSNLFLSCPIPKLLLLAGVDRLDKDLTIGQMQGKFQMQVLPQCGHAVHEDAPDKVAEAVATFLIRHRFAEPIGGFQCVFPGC

AADACL1 = conditions: HEK293T in situ, ABPP-SILAC LC-MS/MS, NHU5 probe, at 5 µM, hits give low values
PLA2G4A = conditions: HEK293T in situ, ABPP-SILAC LC-MS/MS, NHU5 probe, at 5 µM, hits give low values
[2] = target: Acylamino-acid-releasing enzyme (Homo sapiens) (UniProt P13798); conditions: HEK293T in situ, ABPP-SILAC LC-MS/MS, NHU5 probe; APEH; at 5 µM; hits give low values
Acylamino-acid-releasing enzyme (Homo sapiens), sequence (P13798 whole entry, looked up): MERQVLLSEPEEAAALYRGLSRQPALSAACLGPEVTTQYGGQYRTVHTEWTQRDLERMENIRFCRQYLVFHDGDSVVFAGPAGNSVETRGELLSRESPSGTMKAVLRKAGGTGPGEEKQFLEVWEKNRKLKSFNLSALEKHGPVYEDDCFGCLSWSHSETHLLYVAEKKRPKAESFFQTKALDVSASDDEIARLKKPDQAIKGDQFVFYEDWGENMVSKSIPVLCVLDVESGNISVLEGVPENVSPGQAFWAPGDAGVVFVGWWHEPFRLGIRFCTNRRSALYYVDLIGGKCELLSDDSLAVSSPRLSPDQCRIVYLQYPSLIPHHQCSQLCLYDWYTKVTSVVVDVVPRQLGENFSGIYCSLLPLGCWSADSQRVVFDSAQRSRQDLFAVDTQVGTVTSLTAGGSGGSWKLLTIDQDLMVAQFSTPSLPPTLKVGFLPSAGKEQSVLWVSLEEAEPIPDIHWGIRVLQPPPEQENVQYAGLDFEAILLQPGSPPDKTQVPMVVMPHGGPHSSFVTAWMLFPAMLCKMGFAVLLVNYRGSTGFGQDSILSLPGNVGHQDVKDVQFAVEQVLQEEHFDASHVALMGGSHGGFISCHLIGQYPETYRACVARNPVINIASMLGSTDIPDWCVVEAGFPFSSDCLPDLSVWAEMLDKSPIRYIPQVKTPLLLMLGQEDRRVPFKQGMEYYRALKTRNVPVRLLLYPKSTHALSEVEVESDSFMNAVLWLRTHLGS

[3] = target: Fatty acid synthase (Homo sapiens) (UniProt P49327); conditions: HEK293T in situ, ABPP-SILAC LC-MS/MS, NHU5 probe; FASN; at 5 µM; hits give low values
Fatty acid synthase (Homo sapiens), sequence (P49327 whole entry, looked up): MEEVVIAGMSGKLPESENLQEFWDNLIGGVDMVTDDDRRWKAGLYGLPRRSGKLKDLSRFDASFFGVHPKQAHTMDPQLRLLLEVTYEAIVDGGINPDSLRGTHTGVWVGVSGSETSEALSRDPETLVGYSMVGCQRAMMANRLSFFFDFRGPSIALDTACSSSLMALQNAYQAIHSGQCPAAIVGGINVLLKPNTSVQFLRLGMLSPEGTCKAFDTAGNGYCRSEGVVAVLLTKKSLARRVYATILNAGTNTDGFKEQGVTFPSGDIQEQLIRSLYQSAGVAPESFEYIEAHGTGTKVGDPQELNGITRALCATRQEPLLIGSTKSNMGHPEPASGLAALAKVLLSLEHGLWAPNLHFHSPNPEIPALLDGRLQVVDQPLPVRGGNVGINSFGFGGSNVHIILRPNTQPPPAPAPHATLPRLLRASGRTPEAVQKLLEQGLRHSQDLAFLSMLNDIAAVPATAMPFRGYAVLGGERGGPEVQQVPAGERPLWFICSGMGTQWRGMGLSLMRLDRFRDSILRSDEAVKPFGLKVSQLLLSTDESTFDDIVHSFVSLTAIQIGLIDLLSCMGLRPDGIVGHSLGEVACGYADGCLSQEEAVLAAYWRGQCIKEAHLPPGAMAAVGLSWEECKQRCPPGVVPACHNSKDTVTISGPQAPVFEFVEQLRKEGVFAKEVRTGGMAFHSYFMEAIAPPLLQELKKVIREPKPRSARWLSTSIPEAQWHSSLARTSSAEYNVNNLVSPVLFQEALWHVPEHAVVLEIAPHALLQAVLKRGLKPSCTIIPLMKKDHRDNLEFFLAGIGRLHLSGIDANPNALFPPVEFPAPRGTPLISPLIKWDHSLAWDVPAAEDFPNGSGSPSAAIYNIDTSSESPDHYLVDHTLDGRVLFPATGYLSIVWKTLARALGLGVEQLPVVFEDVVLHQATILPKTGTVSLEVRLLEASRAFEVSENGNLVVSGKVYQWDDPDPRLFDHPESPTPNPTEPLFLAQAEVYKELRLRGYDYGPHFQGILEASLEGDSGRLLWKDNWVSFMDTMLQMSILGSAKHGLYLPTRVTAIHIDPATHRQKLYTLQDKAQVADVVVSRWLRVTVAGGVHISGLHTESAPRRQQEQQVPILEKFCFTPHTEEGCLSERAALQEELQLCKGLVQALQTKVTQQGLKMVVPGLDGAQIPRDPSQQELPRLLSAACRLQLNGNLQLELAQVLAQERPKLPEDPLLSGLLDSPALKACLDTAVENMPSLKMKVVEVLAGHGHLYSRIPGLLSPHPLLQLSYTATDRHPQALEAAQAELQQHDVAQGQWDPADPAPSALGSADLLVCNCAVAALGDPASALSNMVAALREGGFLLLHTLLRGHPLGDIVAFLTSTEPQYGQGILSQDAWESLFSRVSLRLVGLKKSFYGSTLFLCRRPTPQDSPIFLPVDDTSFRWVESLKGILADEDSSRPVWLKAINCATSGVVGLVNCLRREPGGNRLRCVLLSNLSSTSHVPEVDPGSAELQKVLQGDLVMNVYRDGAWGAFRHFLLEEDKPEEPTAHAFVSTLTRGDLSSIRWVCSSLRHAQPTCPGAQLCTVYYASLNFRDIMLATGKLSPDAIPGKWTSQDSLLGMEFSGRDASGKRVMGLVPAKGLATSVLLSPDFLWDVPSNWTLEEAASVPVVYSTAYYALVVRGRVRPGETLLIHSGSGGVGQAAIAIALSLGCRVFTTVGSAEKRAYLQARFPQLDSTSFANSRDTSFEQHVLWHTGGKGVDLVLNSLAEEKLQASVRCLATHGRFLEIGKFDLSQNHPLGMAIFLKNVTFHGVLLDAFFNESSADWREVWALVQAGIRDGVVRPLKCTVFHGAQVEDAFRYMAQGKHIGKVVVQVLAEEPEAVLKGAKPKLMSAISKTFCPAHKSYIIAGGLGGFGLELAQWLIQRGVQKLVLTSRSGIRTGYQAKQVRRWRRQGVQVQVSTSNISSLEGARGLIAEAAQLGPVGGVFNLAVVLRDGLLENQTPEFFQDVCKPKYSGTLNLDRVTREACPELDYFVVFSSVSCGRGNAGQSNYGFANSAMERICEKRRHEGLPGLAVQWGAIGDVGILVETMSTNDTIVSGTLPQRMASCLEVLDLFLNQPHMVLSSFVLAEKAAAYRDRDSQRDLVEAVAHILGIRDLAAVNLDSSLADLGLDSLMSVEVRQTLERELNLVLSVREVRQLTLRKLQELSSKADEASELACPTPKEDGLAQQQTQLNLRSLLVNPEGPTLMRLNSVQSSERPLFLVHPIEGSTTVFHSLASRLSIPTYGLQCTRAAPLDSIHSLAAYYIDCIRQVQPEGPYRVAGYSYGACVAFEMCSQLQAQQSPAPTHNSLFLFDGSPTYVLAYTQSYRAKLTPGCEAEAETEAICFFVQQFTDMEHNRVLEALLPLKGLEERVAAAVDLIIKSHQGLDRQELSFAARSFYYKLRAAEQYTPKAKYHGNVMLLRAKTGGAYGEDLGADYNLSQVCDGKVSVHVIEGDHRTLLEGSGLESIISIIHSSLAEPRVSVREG

ESD = conditions: HEK293T in situ, ABPP-SILAC LC-MS/MS, NHU5 probe, at 5 µM, hits give low values
ABHD6 = conditions: HEK293T in situ, ABPP-SILAC LC-MS/MS, NHU5 probe, at 5 µM, hits give low values
ABHD10 = conditions: HEK293T in situ, ABPP-SILAC LC-MS/MS, NHU5 probe, at 5 µM, hits give low values
MGLL = conditions: HEK293T in situ, ABPP-SILAC LC-MS/MS, NHU5 probe, at 5 µM, hits give low values
ABHD12 = conditions: HEK293T in situ, ABPP-SILAC LC-MS/MS, NHU5 probe, at 5 µM, hits give low values
LYPLAL1 = conditions: HEK293T in situ, ABPP-SILAC LC-MS/MS, NHU5 probe, at 5 µM, hits give low values
[4] = target: Acyl-protein thioesterase 1 (Homo sapiens) (UniProt O75608); conditions: HEK293T in situ, ABPP-SILAC LC-MS/MS, NHU5 probe; LYPLA1; at 5 µM; hits give low values
Acyl-protein thioesterase 1 (Homo sapiens), sequence (O75608 whole entry, looked up): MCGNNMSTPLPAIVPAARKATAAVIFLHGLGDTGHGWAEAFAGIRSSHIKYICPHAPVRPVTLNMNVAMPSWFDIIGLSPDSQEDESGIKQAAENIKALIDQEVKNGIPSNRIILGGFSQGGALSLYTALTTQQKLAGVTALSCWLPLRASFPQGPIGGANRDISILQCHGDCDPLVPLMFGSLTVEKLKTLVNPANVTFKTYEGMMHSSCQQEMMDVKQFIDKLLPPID

PREP = conditions: HEK293T in situ, ABPP-SILAC LC-MS/MS, NHU5 probe, at 5 µM, hits give low values
CTSA = conditions: HEK293T in situ, ABPP-SILAC LC-MS/MS, NHU5 probe, at 5 µM, hits give low values
[5] = target: Acyl-protein thioesterase 2 (Homo sapiens) (UniProt O95372); conditions: HEK293T in situ, ABPP-SILAC LC-MS/MS, NHU5 probe; LYPLA2; at 5 µM; hits give low values
Acyl-protein thioesterase 2 (Homo sapiens), sequence (O95372 whole entry, looked up): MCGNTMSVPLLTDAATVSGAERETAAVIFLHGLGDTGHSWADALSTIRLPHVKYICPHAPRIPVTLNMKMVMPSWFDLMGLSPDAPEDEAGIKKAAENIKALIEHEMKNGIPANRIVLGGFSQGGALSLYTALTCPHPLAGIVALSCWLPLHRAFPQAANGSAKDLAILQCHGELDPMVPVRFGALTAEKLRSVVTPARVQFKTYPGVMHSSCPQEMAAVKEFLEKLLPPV

[6] = target: Dipeptidyl peptidase 9 (Homo sapiens) (UniProt Q86TI2); conditions: HEK293T in situ, ABPP-SILAC LC-MS/MS, NHU5 probe; DPP9; at 5 µM; hits give low values
Dipeptidyl peptidase 9 (Homo sapiens), sequence (Q86TI2 whole entry, looked up): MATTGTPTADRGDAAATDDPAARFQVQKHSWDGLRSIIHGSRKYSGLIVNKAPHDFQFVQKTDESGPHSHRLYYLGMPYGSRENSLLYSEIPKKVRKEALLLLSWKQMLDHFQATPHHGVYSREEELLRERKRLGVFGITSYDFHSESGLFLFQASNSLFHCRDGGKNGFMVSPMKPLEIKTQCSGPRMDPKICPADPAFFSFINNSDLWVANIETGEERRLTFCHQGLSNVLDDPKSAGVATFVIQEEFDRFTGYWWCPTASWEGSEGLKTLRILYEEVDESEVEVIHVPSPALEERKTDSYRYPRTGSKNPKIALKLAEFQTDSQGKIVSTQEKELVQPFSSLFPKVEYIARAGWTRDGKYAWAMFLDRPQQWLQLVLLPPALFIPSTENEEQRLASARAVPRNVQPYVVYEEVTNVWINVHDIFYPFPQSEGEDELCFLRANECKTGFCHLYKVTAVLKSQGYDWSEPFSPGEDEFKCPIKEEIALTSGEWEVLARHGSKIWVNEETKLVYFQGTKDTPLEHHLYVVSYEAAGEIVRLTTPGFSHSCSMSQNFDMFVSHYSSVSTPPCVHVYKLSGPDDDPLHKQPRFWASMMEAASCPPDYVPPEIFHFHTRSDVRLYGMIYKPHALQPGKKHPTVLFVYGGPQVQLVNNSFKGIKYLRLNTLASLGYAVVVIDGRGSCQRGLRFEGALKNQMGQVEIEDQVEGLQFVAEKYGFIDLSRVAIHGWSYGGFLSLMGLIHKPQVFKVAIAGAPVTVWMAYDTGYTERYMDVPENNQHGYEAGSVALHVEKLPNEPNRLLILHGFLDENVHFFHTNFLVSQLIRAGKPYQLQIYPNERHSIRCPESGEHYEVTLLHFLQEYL

PNPLA6 = conditions: HEK293T in situ, ABPP-SILAC LC-MS/MS, NHU5 probe, at 5 µM, hits give low values

Measured: remaining activity ratio (inhibitor/DMSO)

COc1ccc(N2CCN(C(=O)c3cc4c(s3)-c3ccccc3S(=O)(=O)C4)CC2)cc1
active: [5] 0.25
inactive: TPP2 1.1 | [1] 1.13 | AADACL1 1.14 | PLA2G4A 1.44 | [2] 1.23 | [3] 1.15 | ESD 1.17 | ABHD6 1.37 | ABHD10 1.21 | MGLL 0.94 | ABHD12 1.24 | LYPLAL1 1.23 | [4] 1.12 | PREP 1.05 | CTSA 1.29 | [6] 1.17 | PNPLA6 1.27
